The text below walks through data of US12552783B2, “Modulators of proteolysis and associated methods of use” (Arvinas Operations, Inc., priority 2018, dated 2026).

Where only a bound is given, the exact number is not on record here.

The target of this assay is KRas (Homo sapiens, UniProt P01116, G12C). Put plainly: KRas degradation in NCI-H2030 cells by Western blot, normalized to GAPDH (data of Table 14). Format: cell-based. Also noted: host or cells: NCI-H2030. Particulars: for Percent Degradation at Indicated Concentration (μM): H2030; for Dmax: NCI-H2030. How it is done: Cell Lines, Antibodies, and Reagents. NCI-H2030 (CRL-5914) and SW1573 (CRL-2170) cells were purchased from ATCC. Both cell lines are homozygous for the G12C mutation in KRas. NCI-H2030 cells were cultured in RPMI-1640 medium containing 1% penicillin-streptomycin and 10% fetal bovine serum (FBS). SW1573 cells were cultured in DMEM containing 1% penicillin-streptomycin and 10% FBS. The KRas detection antibody (Cat. No. LS-C175665) was purchased from LifeSpan Biosciences and was used at a dilution of 1:2000. GAPDH was detected using an antibody purchased from Cell Signaling Technology (Cat. No. 5174) and was diluted 1:3000. Secondary anti-mouse and anti-rabbit detection antibodies were purchased from Cell Signaling Technology (Cat. Nos. 7076 and 7074, respectively).
Compound Treatment and Western Blotting of the Data of Table 14. Either NCI-H2030 or SW1573 cells were plated in 12-well plates and allowed to adhere overnight at 37° C. in an incubator containing 5% CO2. The following day, the medium was replaced with the appropriate medium lacking FBS to induce starvation. Cells were returned to the incubator for an additional 24 hours following media exchange. […] Cells were treated with VHL-based compounds for 24 hours and all other compounds for 72 hours. Following treatment, cells were lysed in RIPA buffer (Thermo Fisher Cat. No. 89900) containing phosphatase (Thermo Fisher Cat. No. 1861277) and protease (Thermo Fisher Cat. No. 78429) inhibitor cocktails. Lysates were cleared at 13,000 rpm for 15 minutes and supernatants were assayed for total protein concentration using the Pierce BCA assay system (Thermo Fisher Cat. No. 23225). For each sample, 10 μg total protein was resolved on a 12% Bis-Tris gel and then transferred to a nitrocellulose membrane. After blocking in 3% BSA in TBST (Tris-buffered Saline with 0.1% Tween-20) for 1 hour at room temperature, membranes were probed with the primary antibody (LS Bio Cat. No. LS-C175665) overnight at 4° C. After incubation with the secondary antibody, the following day membranes were visualized using the SuperSignal™ West Femto substrate (Thermo Fisher Cat. No. 34095). The KRas signal in each lane was normalized to GAPDH and percent degradation was either estimated as less than 25% by visual inspection (C in Table 13) or quantitated relative to the DMSO control lane using BIO-RAD Image Lab 5.2.1, and all data was plotted using GraphPad PRISM 6.07.
DC50 is the half-maximal degradation concentration—i.e., the concentration at which 50% degradation is observed. DMax is the maximum degradation efficacy is achieved—i.e., the maximal degradation observed) degradation data.

As for `C=CC(=O)N1CCN(c2nc(NCCC(=O)N(C)CCOCCOCC(=O)N[C@H](C(=O)N3C[C@H](O)C[C@H]3C(=O)N[C@@H](C)c3ccc(-c4scnc4C)cc3)C(C)(C)C)nc3c(F)c(-c4c(O)cccc4F)c(Cl)cc23)CC1` (atropisomer, axis not shown) [compound 208, (2S,4R)-1-((S)-15-(((R)-4-(4-acryloylpiperazin-1-yl)-6-chloro-8-fluoro-7-(2-fluoro-6-hydroxyphenyl)quinazolin-2-yl)amino)-2-(tert-butyl)-12-methyl-4,13-dioxo-6,9-dioxa-3,12-diazapentadecanoyl)-4-hydroxy-N-((S)-1-(4-(4-methylthiazol-5-yl)phenyl)ethyl)pyrrolidine-2-carboxamide], the maximal degradation (Dmax) (commonly the largest share of the target that was removed) is at most 35%. In addition, the “Percent Degradation at Indicated Concentration (μM)” value (“Percent Degradation” below) (0.3 μM) is recorded as “C (Percent Degradation: C ≤ 35)”. Besides, the “Percent Degradation” value (1 μM) is recorded as “C (Percent Degradation: C ≤ 35)”. Moreover, the “Percent Degradation” value (3 μM) was “C (Percent Degradation: C ≤ 35)”.
Take `C=CC(=O)N1CCN(c2nc(NCCC(=O)N(C)CCOCCOCCOCC(=O)N[C@H](C(=O)N3C[C@H](O)C[C@H]3C(=O)N[C@@H](C)c3ccc(-c4scnc4C)cc3)C(C)(C)C)nc3c(F)c(-c4c(O)cccc4F)c(Cl)cc23)CC1` (atropisomer, axis not shown) [compound 209, (2S,4R)-1-((S)-18-((4-(4-acryloylpiperazin-1-yl)-6-chloro-8-fluoro-7-((S)-2-fluoro-6-hydroxyphenyl)quinazolin-2-yl)amino)-2-(tert-butyl)-15-methyl-4,16-dioxo-6,9,12-trioxa-3,15-diazaoctadecanoyl)-4-hydroxy-N-((S)-1-(4-(4-methylthiazol-5-yl)phenyl)ethyl)pyrrolidine-2-carboxamide]: the “Percent Degradation” value (3 μM) is listed as “C (Percent Degradation: C ≤ 35)”.
`C=CC(=O)N1CCN(c2nc(NCCC(=O)N(C)CCOCCOCCOCC(=O)N[C@H](C(=O)N3C[C@H](O)C[C@H]3C(=O)N[C@@H](C)c3ccc(-c4scnc4C)cc3)C(C)(C)C)nc3c(F)c(-c4c(O)cccc4F)c(Cl)cc23)CC1` (atropisomer, axis not shown) [compound 210, (2S,4R)-1-((S)-18-((4-(4-acryloylpiperazin-1-yl)-6-chloro-8-fluoro-7-((R)-2-fluoro-6-hydroxyphenyl)quinazolin-2-yl)amino)-2-(tert-butyl)-15-methyl-4,16-dioxo-6,9,12-trioxa-3,15-diazaoctadecanoyl)-4-hydroxy-N-((S)-1-(4-(4-methylthiazol-5-yl)phenyl)ethyl)pyrrolidine-2-carboxamide] displayed a Dmax of at most 35%. The “Percent Degradation” value (0.3 μM) is on record as “C (Percent Degradation: C ≤ 35)”. Further, the “Percent Degradation” value (1 μM) is given as “C (Percent Degradation: C ≤ 35)”. In addition, where the note is “3 μM”, the “Percent Degradation” value is recorded as “C (Percent Degradation: C ≤ 35)”.
With `C=CC(=O)N1CCN(c2nc(NCCC(=O)N(C)CCOCCOCCOCCOCC(=O)N[C@H](C(=O)N3C[C@H](O)C[C@H]3C(=O)N[C@@H](C)c3ccc(-c4scnc4C)cc3)C(C)(C)C)nc3c(F)c(-c4c(O)cccc4F)c(Cl)cc23)CC1` (atropisomer, axis not shown) [compound 211, (2S,4R)-1-((S)-21-(((S)-4-(4-acryloylpiperazin-1-yl)-6-chloro-8-fluoro-7-(2-fluoro-6-hydroxyphenyl)quinazolin-2-yl)amino)-2-(tert-butyl)-18-methyl-4,19-dioxo-6,9,12,15-tetraoxa-3,18-diazahenicosanoyl)-4-hydroxy-N-((S)-1-(4-(4-methylthiazol-5-yl)phenyl)ethyl)pyrrolidine-2-carboxamide], the “Percent Degradation” value (3 μM) is recorded as “C (Percent Degradation: C ≤ 35)”.
Compound `C=CC(=O)N1CCN(c2nc(NCCC(=O)N(C)CCOCCOCCOCCOCC(=O)N[C@H](C(=O)N3C[C@H](O)C[C@H]3C(=O)N[C@@H](C)c3ccc(-c4scnc4C)cc3)C(C)(C)C)nc3c(F)c(-c4c(O)cccc4F)c(Cl)cc23)CC1` (atropisomer, axis not shown) [compound 212, (2S,4R)-1-((S)-21-(((R)-4-(4-acryloylpiperazin-1-yl)-6-chloro-8-fluoro-7-(2-fluoro-6-hydroxyphenyl)quinazolin-2-yl)amino)-2-(tert-butyl)-18-methyl-4,19-dioxo-6,9,12,15-tetraoxa-3,18-diazahenicosanoyl)-4-hydroxy-N-((S)-1-(4-(4-methylthiazol-5-yl)phenyl)ethyl)pyrrolidine-2-carboxamide] had a Dmax of at most 35%. Also, under “0.3 μM”, the “Percent Degradation” value was “C (Percent Degradation: C ≤ 35)”. Moreover, the “Percent Degradation” value (1 μM) is “C (Percent Degradation: C ≤ 35)”. The “Percent Degradation” value (3 μM) is reported as “C (Percent Degradation: C ≤ 35)”.
As for `C=CC(=O)N1CCN(c2nc(NCCC(=O)N(C)CCOCCOCCOCCOCCOCC(=O)N[C@H](C(=O)N3C[C@H](O)C[C@H]3C(=O)N[C@@H](C)c3ccc(-c4scnc4C)cc3)C(C)(C)C)nc3c(F)c(-c4c(O)cccc4F)c(Cl)cc23)CC1` (atropisomer, axis not shown) [compound 213, (2S,4R)-1-((S)-24-(((S)-4-(4-acryloylpiperazin-1-yl)-6-chloro-8-fluoro-7-(2-fluoro-6-hydroxyphenyl)quinazolin-2-yl)amino)-2-(tert-butyl)-21-methyl-4,22-dioxo-6,9,12,15,18-pentaoxa-3,21-diazatetracosanoyl)-4-hydroxy-N-((S)-1-(4-(4-methylthiazol-5-yl)phenyl)ethyl)pyrrolidine-2-carboxamide], the “Percent Degradation” value (3 μM) is “C (Percent Degradation: C ≤ 35)”.
`Cc1ncsc1-c1ccc([C@H](C)NC(=O)[C@@H]2C[C@@H](O)CN2C(=O)[C@@H](NC(=O)COCCOCCN(C)C(=O)CCNc2nc(N3CCN(C(N)=O)CC3)c3cc(Cl)c(-c4c(O)cccc4F)c(F)c3n2)C(C)(C)C)cc1` (atropisomer, axis not shown) [compound 227, 4-((S)-6-chloro-8-fluoro-7-(2-fluoro-6-hydroxyphenyl)-2-(((S)-14-((2S,4R)-4-hydroxy-2-(((S)-1-(4-(4-methylthiazol-5-yl)phenyl)ethyl)carbamoyl)pyrrolidine-1-carbonyl)-4,15,15-trimethyl-3,12-dioxo-7,10-dioxa-4,13-diazahexadecyl)amino)quinazolin-4-yl)piperazine-1-carboxamide] yielded a Dmax of at most 35%. Besides, the “Percent Degradation” value (0.3 μM) is reported as “C (Percent Degradation: C ≤ 35)”. Further, the “Percent Degradation” value (1 μM) is given as “C (Percent Degradation: C ≤ 35)”. For the same compound, the “Percent Degradation” value (3 μM) is given as “C (Percent Degradation: C ≤ 35)”.
On to `Cc1ncsc1-c1ccc([C@H](C)NC(=O)[C@@H]2C[C@@H](O)CN2C(=O)[C@@H](NC(=O)COCCN(C)C(=O)CCNc2nc(N3CCN(C(=O)C(O)O)CC3)c3cc(Cl)c(-c4c(O)cccc4F)c(F)c3n2)C(C)(C)C)cc1` (atropisomer, axis not shown) [compound 234, (2S,4R)-1-((S)-2-(2-(2-(3-(((S)-6-chloro-4-(4-(2,2-dihydroxyacetyl)piperazin-1-yl)-8-fluoro-7-(2-fluoro-6-hydroxyphenyl)quinazolin-2-yl)amino)-N-methylpropanamido)ethoxy)acetamido)-3,3-dimethylbutanoyl)-4-hydroxy-N-((S)-1-(4-(4-methylthiazol-5-yl)phenyl)ethyl)pyrrolidine-2-carboxamide], for which the greatest degradation seen (Dmax) was at most 35%. In addition, the “Percent Degradation” value (0.3 μM) was “C (Percent Degradation: C ≤ 35)”. For the same compound, the “Percent Degradation” value (1 μM) was “C (Percent Degradation: C ≤ 35)”. Moreover, the “Percent Degradation” value (3 μM) is reported as “C (Percent Degradation: C ≤ 35)”.
